In EP4722207A1, “OXOISOINDOLINYL-SUBSTITUTED TETRAHYDROPYRIMIDINEDIONE DERIVATIVE AND USE THEREOF” (Gluetacs Therapeutics (Shanghai) Co., Ltd., priority 2023, dated 2024):

Experiments:
Format in all cases: cell-based
IKZF1 = biological target: T1, IKZF1 (Homo sapiens, UniProt Q13422+Q96SW2); test: Western-blot assay, substrate protein degradation in hPBMCs: IKZF1; details: for IKZF1 substrate protein remaining %: compounds at 50 nM and 500 nM, 24 hours
T1 construct: effects of the compounds of the present disclosure on the expression of target proteins in cells; endogenous in cells; host or cells: human PBMCs (hPBMCs)
T1 sequence (Q13422 whole entry): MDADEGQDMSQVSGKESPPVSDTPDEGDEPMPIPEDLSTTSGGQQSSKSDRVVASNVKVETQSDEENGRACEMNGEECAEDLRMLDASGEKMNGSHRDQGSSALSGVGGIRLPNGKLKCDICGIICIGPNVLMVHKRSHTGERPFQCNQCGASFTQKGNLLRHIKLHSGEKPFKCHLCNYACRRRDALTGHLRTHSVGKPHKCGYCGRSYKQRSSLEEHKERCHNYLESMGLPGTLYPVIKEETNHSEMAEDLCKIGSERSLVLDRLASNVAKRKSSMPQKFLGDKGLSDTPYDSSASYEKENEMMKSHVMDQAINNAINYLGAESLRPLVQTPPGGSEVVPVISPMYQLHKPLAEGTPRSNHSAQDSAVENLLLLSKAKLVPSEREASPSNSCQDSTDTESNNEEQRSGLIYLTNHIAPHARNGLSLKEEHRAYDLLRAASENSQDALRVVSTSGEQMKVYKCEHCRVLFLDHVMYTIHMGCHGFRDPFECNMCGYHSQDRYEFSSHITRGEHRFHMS
T1 sequence (Q96SW2 whole entry): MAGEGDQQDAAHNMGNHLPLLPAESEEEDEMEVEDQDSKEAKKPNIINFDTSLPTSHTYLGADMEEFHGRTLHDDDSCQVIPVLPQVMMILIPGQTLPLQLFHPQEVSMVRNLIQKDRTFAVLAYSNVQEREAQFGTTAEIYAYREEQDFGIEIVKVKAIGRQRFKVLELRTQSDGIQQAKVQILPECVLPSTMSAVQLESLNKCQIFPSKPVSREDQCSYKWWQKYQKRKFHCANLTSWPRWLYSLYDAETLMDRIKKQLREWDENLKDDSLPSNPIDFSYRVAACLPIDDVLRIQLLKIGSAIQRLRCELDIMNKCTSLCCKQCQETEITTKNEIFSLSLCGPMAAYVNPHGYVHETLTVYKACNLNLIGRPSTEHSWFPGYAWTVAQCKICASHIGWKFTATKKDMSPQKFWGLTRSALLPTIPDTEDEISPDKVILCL
T1 sequence (Q16531 whole entry partner): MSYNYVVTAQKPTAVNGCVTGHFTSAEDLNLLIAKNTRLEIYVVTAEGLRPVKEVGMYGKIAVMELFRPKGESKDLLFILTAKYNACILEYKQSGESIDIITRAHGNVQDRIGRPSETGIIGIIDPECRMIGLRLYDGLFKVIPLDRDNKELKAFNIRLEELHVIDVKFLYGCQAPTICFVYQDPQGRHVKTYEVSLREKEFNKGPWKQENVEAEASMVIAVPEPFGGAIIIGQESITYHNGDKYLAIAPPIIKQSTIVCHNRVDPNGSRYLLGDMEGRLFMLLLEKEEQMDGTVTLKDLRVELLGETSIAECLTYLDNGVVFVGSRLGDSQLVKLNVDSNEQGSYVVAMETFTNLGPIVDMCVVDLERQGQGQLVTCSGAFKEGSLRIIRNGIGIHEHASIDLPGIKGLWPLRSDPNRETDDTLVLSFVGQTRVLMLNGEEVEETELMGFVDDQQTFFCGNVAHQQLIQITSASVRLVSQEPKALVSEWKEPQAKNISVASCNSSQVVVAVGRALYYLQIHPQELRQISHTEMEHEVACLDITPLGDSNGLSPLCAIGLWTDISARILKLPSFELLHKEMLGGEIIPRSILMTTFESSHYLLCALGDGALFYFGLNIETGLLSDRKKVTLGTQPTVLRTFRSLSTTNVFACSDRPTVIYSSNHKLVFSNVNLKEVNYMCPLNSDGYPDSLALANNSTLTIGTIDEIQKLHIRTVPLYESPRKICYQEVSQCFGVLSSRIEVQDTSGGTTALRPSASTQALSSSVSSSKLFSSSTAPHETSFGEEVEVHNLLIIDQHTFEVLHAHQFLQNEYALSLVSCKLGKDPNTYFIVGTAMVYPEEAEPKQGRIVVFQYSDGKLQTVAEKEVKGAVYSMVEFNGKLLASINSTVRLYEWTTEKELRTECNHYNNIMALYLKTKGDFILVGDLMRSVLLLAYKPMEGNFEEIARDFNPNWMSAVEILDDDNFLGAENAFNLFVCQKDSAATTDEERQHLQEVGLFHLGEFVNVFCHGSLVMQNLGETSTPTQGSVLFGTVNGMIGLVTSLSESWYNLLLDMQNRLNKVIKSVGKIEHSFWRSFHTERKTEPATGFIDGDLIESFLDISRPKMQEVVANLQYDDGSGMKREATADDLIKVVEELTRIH

IKZF3 = biological target: T2, IKZF3 (Homo sapiens, UniProt Q96SW2+Q9UKT9); test: Western-blot assay, substrate protein degradation in hPBMCs: IKZF3; details: for IKZF3 substrate protein remaining %: compounds at 50 nM and 500 nM, 24 hours
T2 construct: effects of the compounds of the present disclosure on the expression of target proteins in cells; endogenous in cells; host or cells: human PBMCs (hPBMCs)
T2 sequence (Q9UKT9 whole entry): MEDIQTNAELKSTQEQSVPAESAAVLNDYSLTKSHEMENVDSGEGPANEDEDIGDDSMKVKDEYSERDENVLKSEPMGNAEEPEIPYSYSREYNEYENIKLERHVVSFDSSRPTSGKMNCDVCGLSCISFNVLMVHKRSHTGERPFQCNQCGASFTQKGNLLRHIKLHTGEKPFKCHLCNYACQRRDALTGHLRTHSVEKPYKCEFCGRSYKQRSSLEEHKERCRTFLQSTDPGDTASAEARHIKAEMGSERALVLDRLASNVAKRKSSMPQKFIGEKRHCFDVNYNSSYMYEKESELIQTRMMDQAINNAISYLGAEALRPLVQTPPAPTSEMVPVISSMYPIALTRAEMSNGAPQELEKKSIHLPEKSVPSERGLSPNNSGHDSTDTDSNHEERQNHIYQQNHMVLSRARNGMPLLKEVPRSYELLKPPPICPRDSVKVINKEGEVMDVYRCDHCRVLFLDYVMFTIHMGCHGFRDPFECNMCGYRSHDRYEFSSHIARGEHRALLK
T2 sequence (Q96SW2 whole entry): as the sequence (Q96SW2 whole entry) above
T2 sequence (Q16531 whole entry partner): as the sequence (Q16531 whole entry partner) above

CK1α = biological target: T3, CK1α (Homo sapiens, UniProt P48729+Q96SW2); test: Western-blot assay, substrate protein degradation in hPBMCs: CK1α; details: for CK1α substrate protein remaining %: compounds at 50 nM and 500 nM, 24 hours
T3 construct: effects of the compounds of the present disclosure on the expression of target proteins in cells; endogenous in cells; host or cells: human PBMCs (hPBMCs)
T3 sequence (P48729 whole entry): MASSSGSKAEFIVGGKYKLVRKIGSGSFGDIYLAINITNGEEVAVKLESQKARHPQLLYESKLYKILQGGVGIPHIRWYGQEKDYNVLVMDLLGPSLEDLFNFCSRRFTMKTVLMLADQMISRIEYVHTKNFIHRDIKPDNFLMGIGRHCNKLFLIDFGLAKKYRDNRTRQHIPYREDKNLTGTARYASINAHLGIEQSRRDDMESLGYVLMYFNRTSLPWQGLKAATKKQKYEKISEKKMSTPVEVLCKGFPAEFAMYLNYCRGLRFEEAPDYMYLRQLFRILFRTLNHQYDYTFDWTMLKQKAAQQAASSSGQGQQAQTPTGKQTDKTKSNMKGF
T3 sequence (Q96SW2 whole entry): as the sequence (Q96SW2 whole entry) above
T3 sequence (Q16531 whole entry partner): as the sequence (Q16531 whole entry partner) above

IKZF2 = biological target: T4, IKZF2 (Homo sapiens, UniProt Q96SW2+Q9UKS7); test: Western-blot assay, substrate protein degradation in hPBMCs: IKZF2; details: for IKZF2 substrate protein remaining %: compounds at 50 nM and 500 nM, 24 hours
T4 construct: effects of the compounds of the present disclosure on the expression of target proteins in cells; endogenous in cells; host or cells: human PBMCs (hPBMCs)

GSPT1 = biological target: T5, GSPT1 (Homo sapiens, UniProt P15170+Q96SW2); test: Western-blot assay, substrate protein degradation in hPBMCs: GSPT1; details: for GSPT1 substrate protein remaining %: compounds at 50 nM and 500 nM, 24 hours
T5 construct: effects of the compounds of the present disclosure on the expression of target proteins in cells; endogenous in cells; host or cells: human PBMCs (hPBMCs)
T5 sequence (P15170 whole entry): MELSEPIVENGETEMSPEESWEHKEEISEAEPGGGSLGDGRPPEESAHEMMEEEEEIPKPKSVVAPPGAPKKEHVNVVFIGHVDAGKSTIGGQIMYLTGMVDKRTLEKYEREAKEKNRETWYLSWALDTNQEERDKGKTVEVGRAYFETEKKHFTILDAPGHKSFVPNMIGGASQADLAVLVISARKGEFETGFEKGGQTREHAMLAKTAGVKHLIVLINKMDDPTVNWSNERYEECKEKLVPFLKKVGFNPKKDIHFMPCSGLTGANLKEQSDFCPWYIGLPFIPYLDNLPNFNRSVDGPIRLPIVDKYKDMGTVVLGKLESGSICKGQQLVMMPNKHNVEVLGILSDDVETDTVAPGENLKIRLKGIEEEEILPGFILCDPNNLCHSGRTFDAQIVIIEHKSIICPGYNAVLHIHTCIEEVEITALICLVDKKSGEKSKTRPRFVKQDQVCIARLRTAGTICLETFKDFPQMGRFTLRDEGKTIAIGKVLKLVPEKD
T5 sequence (Q96SW2 whole entry): as the sequence (Q96SW2 whole entry) above
T5 sequence (Q16531 whole entry partner): as the sequence (Q16531 whole entry partner) above

WEE1 = biological target: T6, WEE1 (Homo sapiens, UniProt P30291+Q96SW2); test: Western-blot assay, substrate protein degradation in hPBMCs: WEE1; details: for WEE1 substrate protein remaining %: compounds at 50 nM and 500 nM, 24 hours
T6 construct: effects of the compounds of the present disclosure on the expression of target proteins in cells; endogenous in cells; host or cells: human PBMCs (hPBMCs)
T6 sequence (P30291 whole entry): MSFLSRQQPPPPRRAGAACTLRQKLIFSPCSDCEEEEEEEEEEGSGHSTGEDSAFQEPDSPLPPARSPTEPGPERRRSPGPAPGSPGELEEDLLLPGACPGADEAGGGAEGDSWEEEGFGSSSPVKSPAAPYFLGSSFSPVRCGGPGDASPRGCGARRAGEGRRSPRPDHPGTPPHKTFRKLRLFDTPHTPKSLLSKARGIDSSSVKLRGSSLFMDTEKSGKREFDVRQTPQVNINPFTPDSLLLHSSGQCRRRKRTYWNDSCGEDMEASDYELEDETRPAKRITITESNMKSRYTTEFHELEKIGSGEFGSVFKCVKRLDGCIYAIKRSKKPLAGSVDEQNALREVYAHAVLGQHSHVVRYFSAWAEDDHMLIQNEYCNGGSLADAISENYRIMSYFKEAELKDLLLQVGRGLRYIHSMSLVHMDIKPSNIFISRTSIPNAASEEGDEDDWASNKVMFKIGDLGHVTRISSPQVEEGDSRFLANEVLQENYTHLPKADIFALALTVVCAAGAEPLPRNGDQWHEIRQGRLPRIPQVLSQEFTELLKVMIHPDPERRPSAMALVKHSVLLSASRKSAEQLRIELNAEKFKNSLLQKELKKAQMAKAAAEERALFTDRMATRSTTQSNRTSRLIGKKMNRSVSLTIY
T6 sequence (Q96SW2 whole entry): as the sequence (Q96SW2 whole entry) above
T6 sequence (Q16531 whole entry partner): as the sequence (Q16531 whole entry partner) above

[1] = 24 hours of compound treatment, 50 nM and 500 nM

SMILES	IKZF1 substrate protein remaining % (IKZF1)	IKZF3 substrate protein remaining % (IKZF3)	CK1α substrate protein remaining % (CK1α)	IKZF2 substrate protein remaining % (IKZF2)	GSPT1 substrate protein remaining % (GSPT1)	WEE1 substrate protein remaining % (WEE1)	substrate protein remaining % IKZF1 (IKZF1; [1])	substrate protein remaining % IKZF3 (IKZF3; [1])	substrate protein remaining % CK1α (CK1α; [1])	substrate protein remaining % IKZF2 (IKZF2; [1])	substrate protein remaining % GSPT1 (GSPT1; [1])	substrate protein remaining % WEE1 (WEE1; [1])
Cc1ccc(N2CCN(Cc3ccc4c(c3)C(=O)N(N3CCC(=O)NC3=O)C4=O)CC2)s1 [GT-05309, 2-(2,4-dioxotetrahydropyrimidin-1(2H)-yl)-5-((4-(5-methylthiophen-2-yl)piperazin-1-yl)methyl)isoindoline-1,3-dione]	B ("B" is defined as 80%< substrate protein remaining %≤ 100%)	B ("B" is defined as 80%< substrate protein remaining %≤ 100%)	B ("B" is defined as 80%< substrate protein remaining %≤ 100%)	B ("B" is defined as 80%< substrate protein remaining %≤ 100%)	A ("A" is defined as 0% ≤ substrate protein remaining % ≤ 80%)	B ("B" is defined as 80%< substrate protein remaining %≤ 100%)	–	–	–	–	–	–
Cc1ccc(C2=CCN(Cc3ccc4c(c3)C(=O)N(N3CCC(=O)NC3=O)C4=O)CC2)s1 [GT-05310, 2-(2,4-dioxotetrahydropyrimidin-1(2H)-yl)-5-((4-(5-methylthiophen-2-yl)-3,6-dihydropyridin-1(2H)-yl)methyl)isoindoline-1,3-dione]	B ("B" is defined as 80%< substrate protein remaining %≤ 100%)	B ("B" is defined as 80%< substrate protein remaining %≤ 100%)	B ("B" is defined as 80%< substrate protein remaining %≤ 100%)	B ("B" is defined as 80%< substrate protein remaining %≤ 100%)	A ("A" is defined as 0% ≤ substrate protein remaining % ≤ 80%)	B ("B" is defined as 80%< substrate protein remaining %≤ 100%)	–	–	–	–	–	–
O=C1CCN(N2C(=O)c3ccc(CN4CCN(c5ccsc5)CC4)cc3C2=O)C(=O)N1 [GT-05313, 2-(2,4-dioxotetrahydropyrimidin-1(2H)-yl)-5-((4-(thiophen-3-yl)piperazin-1-yl)methyl)isoindoline-1,3-dione]	B ("B" is defined as 80%< substrate protein remaining %≤ 100%)	B ("B" is defined as 80%< substrate protein remaining %≤ 100%)	B ("B" is defined as 80%< substrate protein remaining %≤ 100%)	B ("B" is defined as 80%< substrate protein remaining %≤ 100%)	A ("A" is defined as 0% ≤ substrate protein remaining % ≤ 80%)	B ("B" is defined as 80%< substrate protein remaining %≤ 100%)	–	–	–	–	–	–
Cc1cscc1C1CCN(Cc2ccc3c(c2)C(=O)N(N2CCC(=O)NC2=O)C3=O)CC1 [GT-05314, 2-(2,4-dioxotetrahydropyrimidin-1(2H)-yl)-5-((4-(4-methylthiophen-3-yl)piperidin-1-yl)methyl)isoindoline-1,3-dione]	B ("B" is defined as 80%< substrate protein remaining %≤ 100%)	B ("B" is defined as 80%< substrate protein remaining %≤ 100%)	B ("B" is defined as 80%< substrate protein remaining %≤ 100%)	B ("B" is defined as 80%< substrate protein remaining %≤ 100%)	A ("A" is defined as 0% ≤ substrate protein remaining % ≤ 80%)	B ("B" is defined as 80%< substrate protein remaining %≤ 100%)	–	–	–	–	–	–
O=C1CCN(N2C(=O)c3ccc(CN4CCC(c5ccco5)CC4)cc3C2=O)C(=O)N1 [GT-05315, 2-(2,4-dioxotetrahydropyrimidin-1(2H)-yl)-5-((4-(furan-2-yl)piperidin-1-yl)methyl)isoindoline-1,3-dione]	B ("B" is defined as 80%< substrate protein remaining %≤ 100%)	B ("B" is defined as 80%< substrate protein remaining %≤ 100%)	B ("B" is defined as 80%< substrate protein remaining %≤ 100%)	B ("B" is defined as 80%< substrate protein remaining %≤ 100%)	A ("A" is defined as 0% ≤ substrate protein remaining % ≤ 80%)	B ("B" is defined as 80%< substrate protein remaining %≤ 100%)	–	–	–	–	–	–
Cc1cscc1C1=CCN(Cc2ccc3c(c2)C(=O)N(N2CCC(=O)NC2=O)C3=O)CC1 [GT-05316, 2-(2,4-dioxotetrahydropyrimidin-1(2H)-yl)-5-((4-(4-methylthiophen-3-yl)-3,6-dihydropyridin-1(2H)-yl)methyl)isoindoline-1,3-dione]	B ("B" is defined as 80%< substrate protein remaining %≤ 100%)	B ("B" is defined as 80%< substrate protein remaining %≤ 100%)	B ("B" is defined as 80%< substrate protein remaining %≤ 100%)	B ("B" is defined as 80%< substrate protein remaining %≤ 100%)	A ("A" is defined as 0% ≤ substrate protein remaining % ≤ 80%)	B ("B" is defined as 80%< substrate protein remaining %≤ 100%)	–	–	–	–	–	–
O=C1CCN(N2C(=O)c3ccc(CN4CC=C(c5ccco5)CC4)cc3C2=O)C(=O)N1 [GT-05317, 2-(2,4-dioxotetrahydropyrimidin-1(2H)-yl)-5-((4-(furan-2-yl)-3,6-dihydropyridin-1(2H)-yl)methyl)isoindoline-1,3-dione]	B ("B" is defined as 80%< substrate protein remaining %≤ 100%)	B ("B" is defined as 80%< substrate protein remaining %≤ 100%)	B ("B" is defined as 80%< substrate protein remaining %≤ 100%)	B ("B" is defined as 80%< substrate protein remaining %≤ 100%)	A ("A" is defined as 0% ≤ substrate protein remaining % ≤ 80%)	B ("B" is defined as 80%< substrate protein remaining %≤ 100%)	–	–	–	–	–	–
O=C1CCN(N2C(=O)c3ccc(CN4CCN(c5ccc(Cl)cn5)CC4)cc3C2=O)C(=O)N1 [GT-05350, 5-((4-(5-chloropyridin-2-yl)piperazin-1-yl)methyl)-2-(2,4-dioxotetrahydropyrimidin-1(2H)-yl)isoindoline-1,3-dione]	B ("B" is defined as 80%< substrate protein remaining %≤ 100%)	B ("B" is defined as 80%< substrate protein remaining %≤ 100%)	B ("B" is defined as 80%< substrate protein remaining %≤ 100%)	B ("B" is defined as 80%< substrate protein remaining %≤ 100%)	A ("A" is defined as 0% ≤ substrate protein remaining % ≤ 80%)	B ("B" is defined as 80%< substrate protein remaining %≤ 100%)	–	–	–	–	–	–
Cc1cccc(N2CCN(Cc3ccc4c(c3)C(=O)N(N3CCC(=O)NC3=O)C4=O)CC2)n1 [GT-05352, 2-(2,4-dioxotetrahydropyrimidin-1(2H)-yl)-5-((4-(6-methylpyridin-2-yl)piperazin-1-yl)methyl)isoindoline-1,3-dione]	B ("B" is defined as 80%< substrate protein remaining %≤ 100%)	B ("B" is defined as 80%< substrate protein remaining %≤ 100%)	B ("B" is defined as 80%< substrate protein remaining %≤ 100%)	A ("A" is defined as 0% ≤ substrate protein remaining % ≤ 80%)	A ("A" is defined as 0% ≤ substrate protein remaining % ≤ 80%)	B ("B" is defined as 80%< substrate protein remaining %≤ 100%)	–	–	–	–	–	–
O=C1CCN(N2Cc3cc(CN4CCN(c5nccc(Cl)c5F)CC4)ccc3C2=O)C(=O)N1 [GT-05358, 1-(5-((4-(4-chloro-3-fluoropyridin-2-yl)piperazin-1-yl)methyl)-1-oxoisoindolin-2-yl)dihydropyrimidine-2,4(1H,3H)-dione]	B ("B" is defined as 80%< substrate protein remaining %≤ 100%)	B ("B" is defined as 80%< substrate protein remaining %≤ 100%)	B ("B" is defined as 80%< substrate protein remaining %≤ 100%)	B ("B" is defined as 80%< substrate protein remaining %≤ 100%)	A ("A" is defined as 0% ≤ substrate protein remaining % ≤ 80%)	B ("B" is defined as 80%< substrate protein remaining %≤ 100%)	–	–	–	–	–	–
O=C1CCN(N2Cc3cc(CN4CCN(c5nccc(I)c5F)CC4)ccc3C2=O)C(=O)N1 [GT-05406, 1-(5-((4-(3-fluoro-4-iodopyridin-2-yl)piperazin-1-yl)methyl)-1-oxoisoindolin-2-yl)dihydropyrimidine-2,4(1H,3H)-dione]	B ("B" is defined as 80%< substrate protein remaining %≤ 100%)	B ("B" is defined as 80%< substrate protein remaining %≤ 100%)	B ("B" is defined as 80%< substrate protein remaining %≤ 100%)	A ("A" is defined as 0% ≤ substrate protein remaining % ≤ 80%)	A ("A" is defined as 0% ≤ substrate protein remaining % ≤ 80%)	A ("A" is defined as 0% ≤ substrate protein remaining % ≤ 80%)	B (80%< substrate protein remaining %≤ 100%)	B (80%< substrate protein remaining %≤ 100%)	B (80%< substrate protein remaining %≤ 100%)	B (80%< substrate protein remaining %≤ 100%)	A (0% ≤ substrate protein remaining % ≤ 80%)	B (80%< substrate protein remaining %≤ 100%)
